Tests used:
[1] = system: MDA-MB-436 breast cancer cell line; experiment: Cell viability assay (MDA-MB-436); format: cell-based; conditions: Homo sapiens, 144 h; MDA-MB-436 cells, treated 6 days
Procedure: 2. Cell Viability Assay (MDA-MB-436)
(§1) Cell viability assay was performed by using MDA-MB-436 cell line to measure cytotoxicity of compounds in the present invention. MDA-MB-436 breast cancer cell line was seeded into 96-well plates at 37° C. under 5% CO2 atmosphere using DMEM/F12 (Gibco) containing 10% FBS (Hyclone). After 24 hr incubation, cells were treated with the invented compounds at various concentrations for 6 days. The medium was changed every 3 day. 6 days later, A fluorescence reagent was used to determine the IC50 values.

[2] = system: Capan-1 pancreatic cancer cell line; experiment: Cell viability assay (Capan-1); format: cell-based; conditions: Homo sapiens, 240 h; Capan-1 cells, treated 10 days
Procedure: 3. Cell Viability Assay (Capan-1)
as §1, with “using Capan-1” for “using MDA-MB-436”, “invention. Capan-1 pancreatic” for “invention. MDA-MB-436 breast”, “using IMDM (Sigma)” for “using DMEM/F12 (Gibco)”, “for 10” for “for 6”, “days. After 7-day incubation, the” for “days. The”, “was changed. 10” for “was changed every 3 day. 6”

Mouse pharmacokinetics = format: in vivo; parameters: concentration or dose not given beside the values; conditions: Balb/c male mice, blood samples 15 to 1140 min, LC-MS/MS
Procedure: To evaluate the pharmacokinetics test, the invented compounds (from I-25 to I-1171) were determined as follows. Blood samples are collected at 15, 30, 60, 120, 240, 480, 1140 min. Quantification is by using a LC-MS/MS method specific to the selected compound. Pharmacokinetics parameters are calculated using WinNonLinnon compartmental analysis software.

IC50 [1] | IC50 [2] | AUC (Mouse pharmacokinetics) | SMILES
5 to 50 nM | – | 475 ng·h/mL | O=C(c1cc(Cc2n[nH]c(=O)c3ccccc23)ccc1F)N1CC(N2CCC2)C1 [Compound I-75, 4-(3-([1,3′-biazetidine]-1′-carbonyl)-4-fluorobenzyl)phthalazin-1(2H)-one]
≤ 5 nM | 300 to 1000 nM | – | CC(NC1CN(C(=O)c2cc(Cc3n[nH]c(=O)c4ccccc34)ccc2F)C1)C1CC1 (stereo not drawn) [Compound I-42, 4-(3-(3-((1-cyclopropylethyl)amino)azetidine-1-carbonyl)-4-fluorobenzyl)phthalazin-1(2H)-one]
5 to 50 nM | 300 to 1000 nM | – | O=C(c1cc(Cc2n[nH]c(=O)c3ccccc23)ccc1F)N1CC(NC2CC3CCC2C3)C1 (stereo not drawn) [Compound I-43, 4-(3-(3-(bicyclo[2.2.1]heptan-2-ylamino)azetidine-1-carbonyl)-4-fluorobenzyl)phthalazin-1(2H)-one]
50 to 300 nM | – | 521 ng·h/mL | O=C(c1cc(Cc2n[nH]c(=O)c3ccccc23)ccc1F)N1CC[C@@H](NC2CCC2)C1 [Compound I-30, (R)-4-(3-(3-(cyclobutylamino)pyrrolidine-1-carbonyl)-4-fluorobenzyl)phthalazin-1(2H)-one]
≤ 5 nM | – | 472 ng·h/mL | O=C(c1cc(Cc2n[nH]c(=O)c3ccccc23)ccc1F)N1CC(CNC2CCC2)C1 [Compound I-148, 4-(3-(3-((cyclobutylamino)methyl)azetidine-1-carbonyl)-4-fluorobenzyl)phthalazin-1(2H)-one]
5 to 50 nM | 50 to 300 nM | – | O=C(c1cc(Cc2n[nH]c(=O)c3ccccc23)ccc1F)N1CC[C@@H](NC2CCCC2)C1 [Compound I-31, (R)-4-(3-(3-(cyclopentylamino)pyrrolidine-1-carbonyl)-4-fluorobenzyl)phthalazin-1(2H)-one]
5 to 50 nM | 300 to 1000 nM | – | O=C(c1cc(Cc2n[nH]c(=O)c3ccccc23)ccc1F)N1CC(NC2CCCCC2)C1 [Compound I-28, 4-(3-(3-(cyclohexylamino)azetidine-1-carbonyl)-4-fluorobenzyl)phthalazin-1(2H)-one]
300 to 1000 nM | – | – | O=C(c1cc(Cc2n[nH]c(=O)c3ccccc23)ccc1F)N1CC(N[C@@H]2CCNC2)C1 [Compound I-96, (R)-4-(4-fluoro-3-(3-(pyrrolidin-3-ylamino)azetidine-1-carbonyl)benzyl)phthalazin-1(2H)-one]
5 to 50 nM | – | – | CCCNC1CN(C(=O)c2cc(Cc3n[nH]c(=O)c4ccccc34)ccc2F)C1 [Compound I-59, 4-(4-fluoro-3-(3-(propylamino)azetidine-1-carbonyl)benzyl)phthalazin-1(2H)-one]
300 to 1000 nM | – | – | CN(CC1CN(C(=O)c2cc(Cc3n[nH]c(=O)c4ccccc34)ccc2F)C1)C1CC1 [Compound I-154, 4-(3-(3-((cyclopropyl(methyl)amino)methyl)azetidine-1-carbonyl)-4-fluorobenzyl)phthalazin-1(2H)-one]
300 to 1000 nM | – | – | O=C(c1cc(Cc2n[nH]c(=O)c3ccccc23)ccc1F)N1CC(N(CC2CC2)CC2CC2)C1 [Compound I-34, 4-(3-(3-(bis(cyclopropylmethyl)amino)azetidine-1-carbonyl)-4-fluorobenzyl)phthalazin-1(2H)-one]

Second part, the compound before the results:

SMILES | IC50 [1] | IC50 [2] | AUC (Mouse pharmacokinetics)
CC(CO)NC1CN(C(=O)c2cc(Cc3n[nH]c(=O)c4ccccc34)ccc2F)C1 (stereo not drawn) [Compound I-36, 4-(4-fluoro-3-(3-((1-hydroxypropan-2-yl)amino)azetidine-1-carbonyl)benzyl)phthalazin-1(2H)-one] | 5 to 50 nM | 300 to 1000 nM | –
CCC(CC)NC1CN(C(=O)c2cc(Cc3n[nH]c(=O)c4ccccc34)ccc2F)C1 [Compound I-40, 4-(4-fluoro-3-(3-(pentan-3-ylamino)azetidine-1-carbonyl)benzyl)phthalazin-1(2H)-one] | 5 to 50 nM | 300 to 1000 nM | –
O=C(c1cc(Cc2n[nH]c(=O)c3ccccc23)ccc1F)N1CC[C@@H](Nc2cc(C(F)(F)F)ccn2)C1 [Compound I-132, (R)-4-(4-fluoro-3-(3-((4-(trifluoromethyl)pyridin-2-yl)amino)pyrrolidine-1-carbonyl)benzyl)phthalazin-1(2H)-one] | ≤ 5 nM | 5 to 50 nM | –
CCC(C)NC1CN(C(=O)c2cc(Cc3n[nH]c(=O)c4ccccc34)ccc2F)C1 (stereo not drawn) [Compound I-44, 4-(3-(3-(sec-butylamino)azetidine-1-carbonyl)-4-fluorobenzyl)phthalazin-1(2H)-one] | ≤ 5 nM | 300 to 1000 nM | –
CC(C#N)NC1CN(C(=O)c2cc(Cc3n[nH]c(=O)c4ccccc34)ccc2F)C1 (stereo not drawn) [Compound I-100, 2-((1-(2-fluoro-5-((4-oxo-3,4-dihydrophthalazin-1-yl)methyl)benzoyl)azetidin-3-yl)amino)propanenitrile] | 300 to 1000 nM | 300 to 1000 nM | –
CC(C)C(C)NC1CN(C(=O)c2cc(Cc3n[nH]c(=O)c4ccccc34)ccc2F)C1 (stereo not drawn) [Compound I-41, 4-(4-fluoro-3-(3-((3-methylbutan-2-yl)amino)azetidine-1-carbonyl)benzyl)phthalazin-1(2H)-one] | ≤ 5 nM | 300 to 1000 nM | –
COC[C@H](C)NC1CN(C(=O)c2cc(Cc3n[nH]c(=O)c4ccccc34)ccc2F)C1 [Compound I-82, (S)-4-(4-fluoro-3-(3-((1-methoxypropan-2-yl)amino)azetidine-1-carbonyl)benzyl)phthalazin-1(2H)-one] | 5 to 50 nM | 300 to 1000 nM | –
O=C(c1cc(Cc2n[nH]c(=O)c3ccccc23)ccc1F)N1CC(Nc2ncccn2)C1 [Compound I-109, 4-(4-fluoro-3-(3-(pyrimidin-2-ylamino)azetidine-1-carbonyl)benzyl)phthalazin-1(2H)-one] | 300 to 1000 nM | – | –
CN(C)C(=O)c1cccnc1N[C@@H]1CCN(C(=O)c2cc(Cc3n[nH]c(=O)c4ccccc34)ccc2F)C1 [Compound I-129, (R)-2-((1-(2-fluoro-5-((4-oxo-3,4-dihydrophthalazin-1-yl)methyl)benzoyl)pyrrolidin-3-yl)amino)-N,N-dimethylnicotinamide] | 300 to 1000 nM | – | –
CN(Cc1cccnc1)C1CN(C(=O)c2cc(Cc3n[nH]c(=O)c4ccccc34)ccc2F)C1 [Compound I-66, 4-(4-fluoro-3-(3-(methyl(pyridin-3-ylmethyl)amino)azetidine-1-carbonyl)benzyl)phthalazin-1(2H)-one] | 50 to 300 nM | – | –
CCCCCNC1CN(C(=O)c2cc(Cc3n[nH]c(=O)c4ccccc34)ccc2F)C1 [Compound I-57, 4-(4-fluoro-3-(3-(pentylamino)azetidine-1-carbonyl)benzyl)phthalazin-1(2H)-one] | 5 to 50 nM | – | –
CC(NC1CN(C(=O)c2cc(Cc3n[nH]c(=O)c4ccccc34)ccc2F)C1)C1(C)CC1 (stereo not drawn) [Compound I-49, 4-(4-fluoro-3-(3-((1-(1-methylcyclopropyl)ethyl)amino)azetidine-1-carbonyl)benzyl)phthalazin-1(2H)-one] | 5 to 50 nM | – | –
O=C(c1cc(Cc2n[nH]c(=O)c3ccccc23)ccc1F)N1CC(NC2(CO)CC2)C1 [Compound I-84, 4-(4-fluoro-3-(3-((1-(hydroxymethyl)cyclopropyl)amino)azetidine-1-carbonyl)benzyl)phthalazin-1(2H)-one] | 50 to 300 nM | – | –
O=C(c1cc(Cc2n[nH]c(=O)c3ccccc23)ccc1F)N1CC[C@@H](Nc2ccc(Cl)nn2)C1 [Compound I-118, (R)-4-(3-(3-((6-chloropyridazin-3-yl)amino)pyrrolidine-1-carbonyl)-4-fluorobenzyl)phthalazin-1(2H)-one] | 300 to 1000 nM | – | –
CN(c1ccc(Cl)nn1)[C@H]1CCN(C(=O)c2cc(Cc3n[nH]c(=O)c4ccccc34)ccc2F)C1 [Compound I-111, (S)-4-(3-(3-((6-chloropyridazin-3-yl)(methyl)amino)pyrrolidine-1-carbonyl)-4-fluorobenzyl)phthalazin-1(2H)-one] | 300 to 1000 nM | – | –
C#Cc1cnc(N[C@@H]2CCN(C(=O)c3cc(Cc4n[nH]c(=O)c5ccccc45)ccc3F)C2)nc1 [Compound I-125, (R)-4-(3-(3-((5-ethynylpyrimidin-2-yl)amino)pyrrolidine-1-carbonyl)-4-fluorobenzyl)phthalazin-1(2H)-one] | ≤ 5 nM | – | –
O=C(c1cc(Cc2n[nH]c(=O)c3ccccc23)ccc1F)N1CC(NC2(C(F)(F)F)CCC2)C1 [Compound I-104, 4-(4-fluoro-3-(3-((1-(trifluoromethyl)cyclobutyl)amino)azetidine-1-carbonyl)benzyl)phthalazin-1(2H)-one] | 300 to 1000 nM | – | –
N#CC1(CNC2CN(C(=O)c3cc(Cc4n[nH]c(=O)c5ccccc45)ccc3F)C2)CC1 [Compound I-94, 1-(((1-(2-fluoro-5-((4-oxo-3,4-dihydrophthalazin-1-yl)methyl)benzoyl)azetidin-3-yl)amino)methyl)cyclopropanecarbonitrile] | 300 to 1000 nM | – | –
CC(C)[C@@H](C)NC1CN(C(=O)c2cc(Cc3n[nH]c(=O)c4ccccc34)ccc2F)C1 [Compound I-88, (R)-4-(4-fluoro-3-(3-((3-methylbutan-2-yl)amino)azetidine-1-carbonyl)benzyl)phthalazin-1(2H)-one] | ≤ 5 nM | – | –
O=C(c1cc(Cc2n[nH]c(=O)c3ccccc23)ccc1F)N1CC[C@@H](N2CCCCC2)C1 [Compound I-137, (R)-4-(4-fluoro-3-(3-(piperidin-1-yl)pyrrolidine-1-carbonyl)benzyl)phthalazin-1(2H)-one] | 50 to 300 nM | – | –
